Read-outs that look alike come from different tables or passages of the source.
Experiments:
[1] = test system: U87, U87-TxR, U251, NCI-H460, NCI-H460/R, DLD1, DLD1-TxR and MRC-5; experiment: MTT cytotoxicity across the cell line panel (FIG. 1); format: cell-based; conditions: Homo sapiens
Description: The MTT test was used to evaluate the effect of the compounds on cell viability. The test relies on the reduction of tetrazolium salt (MTT) to formazan, which is catalyzed by the mitochondrial enzyme succinate dehydrogenase. The activity of succinate dehydrogenase, which is indicative of mitochondrial respiration, is taken as an indirect measure of the metabolic activity of the cell, and thus its viability. The MTT-formazan produced is a purple-colored product, whose absorbance is measured at a wavelength of 570 nm. • a) To determine the inhibition of cell growth by SC, different cell lines were exposed to increasing concentrations of SC (5, 10, 25, 50, and 100 μM). […] The absorbance of the samples was measured at 570 nm using a Multiskan Sky Microplate spectrophotometer (ThermoFisher Scientific, USA). The results were analyzed using GraphPad Prism 8.0.2. software, and the IC50 values were determined by non-linear regression. • b) To test the interaction between SC and DOX in terms of cytotoxicity in different cell lines, cells were seeded in 96-well microtiter plates at a density of 2,000 cells per well for NCI-H460, NCI-H460/R, DLD1 and DLD1-TxR, and 4,000 cells per well for MRC-5, U87, U87-TxR, and U251 in 100 μl of the appropriate medium. […]

Balb/c mice = experiment: Comparative toxicology study of DOX and CON1; format: in vivo; conditions: i.p.; for creatine phosphokinase (CPK): after 72 h, only DOX significant; for other blood parameters (RBC, HGB, HCT, MCV, MCH, MCHC, RDW, PLT, MPV): data not shown; for percentage of lymphocytes (% LYM, LYM, WBC) / percentage of monocytes and granulocytes (% MON and % GRA): over time
Description: Male Balb/c mice, aged 7-11 weeks, were sourced from the EL-42BIO/Br-01 (Laboratory of Pharmacology, School of Medicine, University of Thessaly, Larissa, Greece). The mice were kept in an environment with a 12-hour light/dark cycle, humidity of around 50-60%, and a temperature of 20-22° C. They had free access to food and water. The handling and experimentation of the mice were conducted in compliance with the Greek laws (PD 56/2013 and Circular 2215/117550/2013) and the European Union guidelines ([…]). The protocol was approved by the IACUC and Greek authorities (License no. 58376/13.02.2023). The mice were divided into three groups with two mice per group, amounting to a total of 18 mice. They were treated as follows: Group 1 received vehicle (10% DMSO and 5% Tween80); Group 2-DOX received 7 mg/kg of body weight via intraperitoneal injection (i.p.); Group 3 received CON1 at 14 mg/kg of body weight (to achieve a DOX concentration of 7 mg/kg of body weight), i.p. The study took place over three time points: 24 h, 48 h and 72 h. At the end of each period, blood samples were collected from the mice's tails and cheeks, and the mice were euthanized by CO2 inhalation followed by cervical dislocation. Fresh blood samples were analyzed using the scil Vet ABC™Hematology Analyzer (scil animal care company GmbH, Germany), while sera from all samples were extracted and analyzed using the Skyla VB1 Veterinary Clinical Chemistry Analyzer (Skyla Corporation, Taiwan) with the Critical Care Panel (900-330) (Skyla Corporation, Taiwan).

[2] = test system: glioblastoma cell lines U87, U87-TxR and U251; experiment: DOX accumulation test, flow cytometry; format: cell-based, human; conditions: 20 μM and 50 μM SC with 20 μM DOX, 60 min
Description: (§1) • a) First, DOX accumulation test was performed on three glioblastoma cell lines, U87, U87-TxR, and U251. Cells were trypsinized and counted, and then 100,000 cells per sample were collected in a tube for flow cytometry and resuspended in 500 μL of culture medium. Cells were treated with 20 μM and 50 µM SC. Immediately after SC treatment, cells were treated with 20 μM DOX, and samples were incubated at 37° C. in a humid atmosphere with 5% CO2 for 60 min. After the accumulation period, the samples were centrifuged, washed twice with cold Phosphate Buffered Saline (PBS), and finally resuspended in 1 mL of PBS. The fluorescence of the samples was read on the FL2 (red channel) of a cytofluorimeter (Partec, Munster, Germany), and the results were analyzed with the software package Summit 4.3. • b) Secondly, DOX and rhodamine 123 accumulation test was performed on non-small cell lung carcinoma cell lines NCI-H460 and NCI-H460/R. Cells were trypsinized and counted, and then 100,000 cells per sample were collected in a tube for flow cytometry and resuspended in 500 μl of culture medium. Cells were treated with 50 μM SC. Immediately after treatment, 5 μM Rho123 was added to one group of samples and the other 20 μM DOX. […] The samples were analyzed using a flow cytometer, reading for rhodamine 123 on FL1 (green channel) and DOX on FL2 (red channel). […]

[3] = target: T1, P-glycoprotein activity in NCI-H460/R (Homo sapiens, UniProt P08183); experiment: DOX and rhodamine 123 accumulation test, flow cytometry; format: cell-based
T1 construct: obtained by successive exposure of NCI-H460 cells to increasing concentrations of DOX; endogenous in cells; host or cells: NCI-H460/R (doxorubicin-selected from NCI-H460)
T1 sequence (P08183 whole entry): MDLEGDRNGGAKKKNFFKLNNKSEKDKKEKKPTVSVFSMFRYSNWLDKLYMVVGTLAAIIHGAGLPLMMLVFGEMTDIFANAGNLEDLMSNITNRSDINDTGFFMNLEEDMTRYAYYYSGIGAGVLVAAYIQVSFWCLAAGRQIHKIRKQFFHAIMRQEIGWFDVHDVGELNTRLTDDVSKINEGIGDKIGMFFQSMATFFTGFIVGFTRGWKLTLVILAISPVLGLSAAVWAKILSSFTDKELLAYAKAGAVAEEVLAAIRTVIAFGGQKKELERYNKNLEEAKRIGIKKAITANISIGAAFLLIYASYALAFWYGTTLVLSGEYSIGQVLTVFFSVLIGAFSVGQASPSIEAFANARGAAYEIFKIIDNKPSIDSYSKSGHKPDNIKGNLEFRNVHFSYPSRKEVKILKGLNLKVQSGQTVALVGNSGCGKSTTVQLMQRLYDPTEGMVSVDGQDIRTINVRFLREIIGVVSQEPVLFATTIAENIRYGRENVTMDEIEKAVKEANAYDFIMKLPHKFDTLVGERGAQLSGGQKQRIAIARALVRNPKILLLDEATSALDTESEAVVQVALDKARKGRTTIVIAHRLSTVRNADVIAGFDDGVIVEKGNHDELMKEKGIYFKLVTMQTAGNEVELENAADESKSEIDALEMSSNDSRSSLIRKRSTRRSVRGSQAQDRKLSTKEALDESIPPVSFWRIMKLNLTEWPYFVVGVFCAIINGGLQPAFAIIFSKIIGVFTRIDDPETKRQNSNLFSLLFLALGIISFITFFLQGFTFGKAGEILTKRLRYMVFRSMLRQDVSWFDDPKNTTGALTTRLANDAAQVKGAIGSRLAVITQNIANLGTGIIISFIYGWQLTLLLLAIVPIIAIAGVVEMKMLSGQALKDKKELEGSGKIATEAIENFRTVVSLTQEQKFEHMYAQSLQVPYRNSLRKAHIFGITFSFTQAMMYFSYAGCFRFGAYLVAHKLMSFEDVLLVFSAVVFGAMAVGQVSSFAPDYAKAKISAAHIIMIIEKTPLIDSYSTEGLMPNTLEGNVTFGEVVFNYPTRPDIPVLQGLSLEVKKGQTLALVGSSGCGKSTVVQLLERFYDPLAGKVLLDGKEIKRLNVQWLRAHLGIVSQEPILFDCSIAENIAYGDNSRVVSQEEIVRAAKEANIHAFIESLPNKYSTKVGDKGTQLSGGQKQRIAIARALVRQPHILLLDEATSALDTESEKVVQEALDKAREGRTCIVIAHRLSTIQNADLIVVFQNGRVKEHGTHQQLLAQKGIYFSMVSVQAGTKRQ
Description: as §1

[4] = test system: spheroids of ovarian cancer cell lines that are resistant to DOX; conditions: effect of SC; cited from earlier work
[5] = DOX 7 mg/kg, CON1 14 mg/kg, 24, 48, 72 h
[6] = CON1 14 mg/kg, at 48 h, disappeared after 72 h

COc1cccc2c1C(=O)c1c(O)c3c(c(O)c1C2=O)C[C@@](O)(C(=O)CO)C[C@@H]3O[C@H]1C[C@H](N)[C@H](O)[C@H](C)O1 [DOX, doxorubicin]
IC50 ([1]; micromolar range in resistant lines, nanomolar in sensitive ones, read-out: DOX active concentration in resistant cancer cell lines): < 5 µM
alanine aminotransferase (ALT) (Balb/c mice; [5]): increase
alkaline phosphatase (ALP) (Balb/c mice; [5]): significantly decrease
creatine phosphokinase (CPK) (Balb/c mice; DOX 7 mg/kg, CON1 14 mg/kg): increased
other blood parameters (RBC, HGB, HCT, MCV, MCH, MCHC, RDW, PLT, MPV) (Balb/c mice; DOX 7 mg/kg, CON1 14 mg/kg): None of the tested compounds, DOX or CON1, had any impact
percentage of lymphocytes (% LYM, LYM, WBC) (Balb/c mice; DOX 7 mg/kg, CON1 14 mg/kg): decreased
percentage of monocytes and granulocytes (% MON and % GRA) (Balb/c mice; DOX 7 mg/kg, CON1 14 mg/kg): increased
levels of K (Balb/c mice; DOX 7 mg/kg, 24, 48, 72 h): consistently increased

C=C[C@](C)(O)CC[C@@H]1[C@@]2(C)CCCC(C)(C)[C@@H]2CC[C@@]1(C)O [SC, sclareol]
IC50 ([1]; range depending on the cell type, FIG. 1, MTT 72 h, read-out: IC50 value of 50% inhibition of cell growth): 20 to 70 µM
accumulation of DOX [2]: increase the accumulation of DOX
accumulation of DOX ([3]; 50 μM SC with 20 μM DOX, 60 min): increased
accumulation of rhodamine 123 / P-glycoprotein activity ([3]; 50 μM SC with rhodamine 123, 30 min): inhibition of P-glycoprotein activity
accumulation of DOX in spheroids [4]: did not enhance
increase of the cytotoxicity of DOX [4]: 4.5 times

N1-((25,3S,4S,6R)-3-hydroxy-2-methyl-6-(((1S,3S)-3,5,12-trihydroxy-3-(2-hydroxyacetyl)-10-methoxy-6,11-dioxo-1,2,3,4,6,11-hexahydrotetracen-1-yl)oxy)tetrahydro-2H-pyran-4-yl)-N4-(3-((4-((R,E)-3-hydroxy-5-((1R,2R,4aS,8aS)-2-hydroxy-2,5,5,8a-tetramethyldecahydronaphthalen-1-yl)-3-methylpent-1-en-1-yl)benzyl)amino)propyl) succinamide [CON1]
percentage of eosinophils (% EOS) (Balb/c mice; CON1 14 mg/kg): not significantly relevant
Ca levels (Balb/c mice; [6]): temporary increase
Na levels (Balb/c mice; [6]): decrease
total bicarbonate (tCO2) (Balb/c mice; CON1 14 mg/kg, at 48 h, disappeared by 72 h): transiently increased
alanine aminotransferase (ALT) (Balb/c mice; [5]): did not change
alkaline phosphatase (ALP) (Balb/c mice; [5]): increase ALP levels after 48 h
creatine phosphokinase (CPK) (Balb/c mice; DOX 7 mg/kg, CON1 14 mg/kg): increased
other blood parameters (RBC, HGB, HCT, MCV, MCH, MCHC, RDW, PLT, MPV) (Balb/c mice; DOX 7 mg/kg, CON1 14 mg/kg): None of the tested compounds, DOX or CON1, had any impact
percentage of lymphocytes (% LYM, LYM, WBC) (Balb/c mice; DOX 7 mg/kg, CON1 14 mg/kg): did not have any impact
percentage of monocytes and granulocytes (% MON and % GRA) (Balb/c mice; DOX 7 mg/kg, CON1 14 mg/kg): did not have any impact
